According to patent publication US20220169680A1 (priority 2018, published 2022):
Entries after “also recorded” stand apart in the source; their conditions may differ.

Columns and labels:
A549 cells [1] = format: cell-based
A549 cells [2] = format: cell-based; remark: listed apart in the source
A549 cells [3] = format: cell-based; remark: listed apart in the source
[4] = system: 3′ UTR region of RELA gene; format: cell-based
A549 cells [5] = format: cell-based; remark: listed apart in the source
A549 cells [6] = format: cell-based; remark: listed apart in the source
A549 cells [7] = format: cell-based; remark: listed apart in the source
A549 cells [8] = format: cell-based; remark: listed apart in the source
HEK293T cells = format: cell-based
[9] = system: LPS-induced acute lung injury in mice; design: species or system C57 BL/6 male mice; details: mouse, in vivo
HeLa cells = format: cell-based
MRCS cells = format: cell-based
[10] = system: 293T cell, HUVEC cell, HCT-116 cell, MKN-45 cell, MRCS cell, U397 cell and ESF-1 cell; format: cell-based
A549 cells [11] = format: cell-based; remark: listed apart in the source
[12] = system: 3′ UTR region of COLLAGEN3A1 gene; format: cell-based
murine organs = system: murine organs; design: species or system C57 BL/6 male mice; details: mouse, in vivo
[13] = system: poly(I:C)-induced acute lung injury mouse model; design: species or system C57 BL/6 male mice; details: in vivo
[14] = system: LPS-induced acute lung injury in mice; design: species or system C57 BL/6 male mice; details: mouse, in vivo; remark: listed apart in the source
[15] = system: LPS-induced acute lung injury in mice; details: mouse, in vivo; cited from earlier work

Q: What does the source list for “DRLFFKCIYRRLK [Jilin-2004(H5N1)-M2-44-56]”?
A: cell-penetrating peptide function compared with positive control TAT (A549 cells [1]): stronger than that of the positive control TAT; ability to carry small RNA compared with TAT at the same concentration (A549 cells [2]): significantly stronger; carrying FAM-labeled small RNA into cells (A549 cells [2]): can all carry small RNA into cells; carrying Cy3-labeled small RNA into cells (A549 cells [3]): can carry small RNA into cells; effect compared with transfection reagent RNAiMax (A549 cells [3]): stronger than that of the transfection reagent RNAiMax; ability to carry PGY-dsRNA-6 compared with positive control TAT [4]: stronger than that of the positive control TAT; carrying PGY-dsRNA-6 into cells and fulfilling its function (luciferase reporter) [4]: could all carry PGY-dsRNA-6 into cells and fulfill its function; ability to carry proteins into the cell compared with TAT at the same concentration (A549 cells [5]): significantly stronger; carrying β-galactosidase protein into the cell (A549 cells [5]): could carry β-galactosidase protein into the cell; cell entry of polypeptide carrying GFP protein (A549 cells [6]): observed; effect of carrying GFP protein compared with positive control TAT (A549 cells [6]): stronger than that of the positive control TAT

Q: Which “cell entry of rhodamine-labeled polypeptide” value (A549 cells [7]) does the source give for GRKKRRQRRRPPQ [TAT, reference compound] here?
A: The value was “could all enter A549 cells”.

Q: What about the cell entry (A549 cells [1]) of the same compound?
A: The cell entry was “did not show cell entry”.

Q: What about the “cell entry after 5 min incubation” value (A549 cells [1]) of the same compound?
A: Its value is “the entry into the cell was observed”.

Q: And the “cell entry at 1 h” value (A549 cells [1])?
A: Its value is “the effect was obvious”.

Q: And the “ability to carry small RNA (PGY-sRNA-26) into cells, qPCR” value (A549 cells [8])?
A: Its value is “very weak”.

Q: And the “carrying NS1-GFP plasmid into cells and GFP expression” value (HEK293T cells)?
A: The value was “almost no expression of GFP fluorescent protein”.

Q: And the “entry of miR1246 antagomir into lung tissue of mice” value [9]?
A: The value was “almost no effect”.

Q: Which “amount of cell entry versus incubation duration” value (A549 cells [1]) does the source give for “DRLFFKCIYRRLKYGLKR [Jilin-2004(H5N1)-M2-44-61]” here?
A: The value was “increased as the incubation duration increased”.

Q: And the cell entry (A549 cells [1])?
A: The cell entry was “entered A549 cells”.

Q: What about the “cell entry after 5 min incubation” value (A549 cells [1]) of the same compound?
A: Its value is “cell entry could be detected; also recorded: the entry into the cell was observed”.

Q: What about the “cell entry at 30 min” value (A549 cells [1]) of the same compound?
A: Its value is “had a strong entry effect”.

Q: What about the “cell entry at lower concentrations” value (A549 cells [1]) of the same compound?
A: The value was “could still enter A549 cells”.

Q: And the “cell entry effect compared with TAT at the same time points” value (A549 cells [1])?
A: The value was “much stronger than that of the positive control TAT polypeptide”.

Q: And the “cell entry effect compared with TAT positive control” value (A549 cells [1])?
A: Its value is “stronger than that of the TAT polypeptide”.

Q: And the “cell entry effect compared with existing cell-penetrating peptides (Table 4)” value (A549 cells [1])?
A: Its value is “significantly better cell entry effects than existing cell-penetrating peptides”.

Q: What about the “cell entry effect compared with the other three penetrating polypeptides” value (A549 cells [1]) of the same compound?
A: Its value is “even better cell entry effect”.

Q: And the “cell-penetrating peptide function compared with positive control TAT” value (A549 cells [1])?
A: Its value is “stronger than that of the positive control TAT”.

Q: What about the “difference in entry effects between 1 h, 3 h and 6 h” value (A549 cells [1]) of the same compound?
A: The value was “little difference in entry effects”.

Q: What about the “entry effect compared with other C-terminally truncated polypeptides” value (A549 cells [1]) of the same compound?
A: The value was “even better entry effects than other polypeptides”.

Q: What about the cell penetration properties (HeLa cells) of the same compound?
A: Its cell penetration properties is “consistent with the results obtained using A549 cells”.

Q: And the cell penetration properties (MRCS cells)?
A: Its cell penetration properties is “consistent with the results obtained using A549 cells”.

Q: What about the “entry effect compared with other fragments in different cell lines” value [10] of the same compound?
A: Its value is “even better entry effects”.

Q: And the “ability to carry FAM-labeled small RNA compared with transfection reagent RNAiMax” value (A549 cells [2])?
A: The value was “stronger than that of the transfection reagent RNAiMax”.

Q: What about the “ability to carry small RNA compared with TAT at the same concentration” value (A549 cells [2]) of the same compound?
A: Its value is “significantly stronger”.

Q: And the “carrying FAM-labeled small RNA into cells” value (A549 cells [2])?
A: The value was “can all carry small RNA into cells”.

Q: And the “carrying Cy3-labeled small RNA into cells” value (A549 cells [3])?
A: Its value is “can carry small RNA into cells”.

Q: What about the “effect compared with transfection reagent RNAiMax” value (A549 cells [3]) of the same compound?
A: The value was “stronger than that of the transfection reagent RNAiMax”.

Q: And the “carrying Cy3-labeled small RNA into cells (super high resolution microscope)” value (A549 cells [11])?
A: Its value is “can carry Cy3-labeled small RNA into A549 cells”.

Q: What about the “effect compared with RNAiMax or TAT (super high resolution microscope)” value (A549 cells [11]) of the same compound?
A: Its value is “stronger than that of the transfection reagent RNAiMax or of TAT”.

Q: What about the “ability to carry small RNA into cells compared with the transfection reagent RNAiMax group, qPCR” value (A549 cells [8]) of the same compound?
A: Its value is “stronger than the transfection reagent RNAiMax group”.

Q: What about the “ability to carry small RNA into cells, qPCR” value (A549 cells [8]) of the same compound?
A: Its value is “all had the ability to carry small RNA into cells”.

Q: And the “rank of ability to carry small RNA in the cell experiments” value (A549 cells [8])?
A: The value was “the strongest ability to carry small RNA in the cell experiments”.

Q: And the “ability to carry PGY-dsRNA-6 compared with positive control TAT” value [4]?
A: Its value is “stronger than that of the positive control TAT”.

Q: What about the “carrying PGY-dsRNA-6 into cells and fulfilling its function (luciferase reporter)” value [4] of the same compound?
A: Its value is “could all carry PGY-dsRNA-6 into cells and fulfill its function”.

Q: What about the “cell-penetrating peptide effect compared with transfection reagent RNAiMax” value [4] of the same compound?
A: Its value is “close to the transfection reagent RNAiMax”.

Q: And the “ability to carry HJT-sRNA-m7 compared with positive control TAT” value [12]?
A: The value was “stronger than that of the positive control TAT”.

Q: And the “carrying HJT-sRNA-m7 into cells and fulfilling its function (luciferase reporter)” value [12]?
A: Its value is “could carry HJT-sRNA-m7 into cells and fulfill its function”.

Q: What about the “cell-penetrating peptide effect compared with transfection reagent RNAiMax” value [12] of the same compound?
A: Its value is “close to the transfection reagent RNAiMax”.

Q: What about the “carrying NS1-GFP plasmid into cells and GFP expression” value (HEK293T cells) of the same compound?
A: Its value is “could carry NS1-GFP plasmid into HEK293 cells, and GFP protein was expressed in the nucleus”.

Q: What about the “ability to deliver small RNA compared with TAT” value (murine organs) of the same compound?
A: The value was “significantly stronger than that of TAT”.

Q: What about the “murine organs or tissues in which small RNA was detected” value (murine organs) of the same compound?
A: Its value is “detected in 8 murine organs or tissues, including heart, liver, spleen, lung, kidney, stomach, small intestine and thymus”.

Q: What about the “delivery of small RNAs to murine organs” value (murine organs; ip) of the same compound?
A: The value was “could effectively deliver small RNAs (PGY-sRNA-23 and PGY-sRNA-26) to murine organs”.

Q: What about the “ability to carry small RNA in murine organs compared with TAT” value [13] of the same compound?
A: Its value is “stronger than that of TAT”.

Q: And the “entry of miR1246 antagomir into lung tissue of mice” value [9]?
A: The value was “could improve the entry of miR1246 antagomir into lung tissue of mice”.

Q: And the “effect on preventing lung injury (IL-6 in alveolar lavage fluid)” value [14]?
A: Its value is “had no effect on preventing lung injury”.

Q: With `COc1cc(C2Oc3cc([C@H]4Oc5cc(O)cc(O)c5C(=O)[C@@H]4O)ccc3OC2CO)ccc1O` (stereo partly shown) [silybin, reference compound] as the compound, how does the “effect on preventing lung injury (IL-6 in alveolar lavage fluid)” value [14] read?
A: Its value is “had a tendency to prevent lung injury at this dose”.

Q: What about the “effect on LPS-induced acute lung injury in mice” value [15] of the same compound?
A: Its value is “can effectively reduce the LPS-induced acute lung injury in mice”.
